Values quoted from earlier work as cited in patent US9902985B2 (priority 2012, dated 2018).
Read-outs that look alike come from different tables or passages of the source.

How the values were obtained:
Gram-positive organisms = conditions: fold more potent than vancomycin

SMILES: C=C(C/C=C(\C)CCC=C(C)C)CCC(C)(C)/C=C/CC/C(C)=C/CO[C@@H](COP(=O)(O)O[C@H]1O[C@H](C(N)=O)[C@@](C)(O)[C@H](OC(N)=O)[C@H]1O[C@@H]1O[C@H](CO[C@@H]2O[C@H](CO)[C@@H](O)[C@H](O)[C@H]2O)[C@@H](O[C@@H]2O[C@H](C)[C@@H](O[C@@H]3O[C@H](C(=O)NC4=C(O)CCC4=O)[C@H](O)[C@H](O)[C@H]3O)[C@H](O)[C@H]2NC(C)=O)[C@H](O)[C@H]1NC(C)=O)C(=O)O [Moenomycin A]
- potency relative to vancomycin (Gram-positive organisms): a thousand times more potent
- potency relative to vancomycin (Gram-positive organisms; listed as moenomycin): 10-1000 times
- absorption upon oral administration: relatively poor
